From a melting point compilation (Tetko et al.; mined from patent text by program, amines drawn as free bases though some values may be those of a salt)

| SMILES | melting point |
| --- | --- |
| O=C(NCc1ccccc1)c1ccnc(NC(=O)c2cccc(F)c2)c1 | 140 to 143 °C |
| Cc1nc(-n2cnn(CCOc3ccc(F)cc3)c2=O)sc1C(=O)NCc1cccnc1 | 154 to 155 °C |
| CCCCCCCCCCCCC1=C(O)C(=O)c2ccccc2C1=O | 85 to 87 °C |
| CCOC(=O)C1=Cc2cc(OC(F)(F)F)ccc2NC1C(F)(F)F (stereo unspecified) | 123 to 125 °C |
| O=Cc1ccc(-c2cnco2)[nH]1 | 152 to 153 °C |
| COC(F)(F)C(F)(F)C1(C(F)(F)C(F)(F)OC)OCCO1 | 30 to 40 °C |
| CN(C)CCCNC1c2ccccc2C(=O)N1c1ccc2ccc(Cl)nc2n1 (stereo unspecified) | 143 °C |
| CCOC(=O)c1ccc2nccc(Cl)c2c1 | 84 to 85 °C |
| CCCCCCCCCCCCCCCCOC[C@@H]1OCC[C@H]1OP(=O)([O-])OCC[N+](C)(C)C (relative stereo) | 213 to 223 °C |
| CCCc1c(OCCCOc2ccc3c(c2CCC)OC(CCC(=O)OC)CC3=O)ccc(C(C)=O)c1O (stereo unspecified) | 101 to 102 °C |
| CCCC(CCC)c1ccc(CN(C)c2ccc(-c3coc(CN(CC(=O)O)Cc4ccccc4)n3)cc2)cc1 | 129 to 131 °C |
| O=C(O)C1Oc2ccc3ccccc3c2C=C1C(F)(F)F (stereo unspecified) | 245 to 250 °C |
| C=C(CCC(C)C1CCC2(C)C3CCC4C(C)(C)C(O)CCC45CC35CCC12C)C(C)C (stereo unspecified) | 123 to 124 °C |
| CCCOc1ccccc1-c1nc2cc3ncn(Cc4ccccc4)c3cc2c(=O)[nH]1 | 218 to 219 °C |
| Cc1ccc2c(c1)CC(N1CCN(CCN3CCOC3=O)CC1)c1cc(C)ccc1O2 (stereo unspecified) | 145 to 147 °C |
| COc1cc(OC)cc(C(=CC#N)c2ccc3ncccc3c2)c1 | 142 to 144 °C |
| Cc1n[nH]c2c1C(=O)CC(c1cc(Cl)sc1Cl)C2 (stereo unspecified) | 167 to 168 °C |
| Oc1cc(C2CC2)[nH]n1 | 213 to 215 °C |
| Cc1cc(C)c2ncc([N+](=O)[O-])c(-c3ccccc3Cl)c2c1 | 130 to 131 °C |
| COc1nc(Br)cnc1NS(=O)(=O)c1cccc2c(N(C)C)cccc12 | 166 to 167 °C |
| O=C(NCC1CCCC1)c1ccc2cc[nH]c2c1 | 148 to 150 °C |
| NC(=O)C(F)(F)C(F)(F)C(=O)C(F)(F)F | 82 to 87 °C |
| CC(C)C[C@H](NC(=O)[C@@H](O)[C@@H](Cc1ccc(S(C)(=O)=O)cc1)NC(=O)OCc1ccccc1)C(=O)OCc1ccccc1 | 136 to 138 °C |
| C[C@@H](NC(=O)[C@H](Cc1ccc(OCc2ccccc2)cc1)NC(=O)[C@@H](N)COCc1ccccc1)C(=O)O | 121 to 122 °C |

| SMILES | melting point |
| --- | --- |
| CN(C)C=C(C#N)C(=O)Nc1cc(F)ccc1F | 175 to 176 °C |
| CC(CCC(=O)O)c1ccc(OCc2ccccc2C(=O)O)cc1 (stereo unspecified) | 104 to 106 °C |
| NCC(=O)N1CCN(C(=O)c2cc(C(F)(F)F)cc(C(F)(F)F)c2)[C@H](Cc2c[nH]c3ccccc23)C1 | 110 to 120 °C |
| CCCCCCC(C)(C)c1cc(O)c2c(c1)OC(C)(C)[C@@H]1CCC(=O)C[C@H]21 (relative stereo) | 151 to 153 °C |
| O=C(O)c1ccc(OCCCNc2ccc(NCc3ccc4c(c3)OCCO4)cc2)cc1 | 246 to 247 °C |
| O=[N+]([O-])c1ccc(NCc2ccccc2)c(F)c1 | 97.5 to 99 °C |
| C=CCNc1ncnc2c1ncn2Cc1c(F)cccc1Cl | 163 to 164 °C |
| Cc1cc(CCCCCOc2ccc(C3=NCCO3)cc2CO)on1 | 140 to 141 °C |
| COc1ccc(-c2c(Cl)c(CN3C(=O)CCC3=O)nc3sc4c(c23)CCS(=O)(=O)C4)cc1 | 300 °C |
| CCP(=O)(CC)Cc1ccc(NC(=O)C2=Cc3cc(-c4ccc(C)cc4)ccc3OCC2)cc1 | 240 to 241 °C |
| COc1ccc(-c2c(CO)c(CO)c3n2-c2ccc(OC)cc2C3)cc1 | 186 to 187 °C |
| CCC1=c2ccccc2=NC1=O | 100 to 101 °C |
| COc1cc(C(=O)c2nc(C(N)=O)c3ccccn23)ccc1N | 241 °C |
| O=c1[nH]c2ccccc2c(=O)n1CCCCN1CCC(OC(c2ccccc2)c2ccccc2)CC1 | 140 to 142 °C |
| O=C(O)COCC(=O)OCC1CN(C(=O)Oc2ccccc2)CCC1c1ccc(F)cc1 (stereo unspecified) | 144 to 146 °C |
| CC1(c2ccc(N)cc2F)CNC1=O (stereo unspecified) | 125 to 127 °C |
| O=C1NCCN1c1ccc(S(=O)(=O)Nc2ccc3[nH]ccc3c2)cc1 | 239 to 241 °C |
| COc1ccccc1N1CCN(c2cc3ccccc3cn2)CC1 | 112 to 114 °C |
| CC(=O)c1cccc(NC(=O)c2cc(C(=O)Nc3cccc(C(C)=O)c3)cc(C(=O)Nc3cccc(C(C)=O)c3)c2)c1 | 270 °C |
| COc1ccc2c(=O)[nH]ncc2c1 | 200 to 205 °C |
| O=C(Nc1ccc(C(=O)N2CCc3cn[nH]c3-c3sccc32)c(Cl)c1)c1cc(Cl)ccc1F | 282 to 288 °C |
| C=C1CCC(C(=O)OC)Cc2onc(-c3ccc(Cl)cc3)c21 (stereo unspecified) | 113 to 114 °C |
| CCCOc1ccnc2[nH]ccc12 | 189 to 191 °C |
| COC[C@H]1CN(c2ccc(CCCC(=O)C3CCCCC3)cc2)C(=O)O1 | 86 °C |

| SMILES | melting point |
| --- | --- |
| COc1ccc(-c2cc3nccnc3[nH]2)cc1OC | 212 to 214 °C |
| CCOC(=O)C1C(c2ccc(I)cc2)CC(=O)N1C (stereo unspecified) | 120 to 121 °C |
| CCCCc1ccc(NC(=O)CCc2ccccc2)c(=O)n1CC(=O)OC | 84 to 85 °C |
| CCN1C=C(C(=O)O)C(=O)CC1c1ccccc1 (stereo unspecified) | 148 to 150 °C |
| C=CCNC1=NS(=O)(=O)c2sc(Cl)cc2N1 | 217 to 221 °C |
| CC(C)c1cc(C(=O)CI)cc(C(C)C)c1O | 127 to 128 °C |
| CS(=O)(=O)Oc1ccc(O)cc1 | 82 to 84 °C |
| COc1cc2ncc(C#N)c(Nc3ccc(F)c(Cl)c3)c2cc1NC(=O)C=CCN1C(C)CCC1C (stereo unspecified) | 110 to 113 °C |
| N#CC1=C(c2cccs2)Nc2n[nH]cc2C1c1cccc2nonc12 (stereo unspecified) | 230 °C |
| CN(C)CCCC(C#N)(c1ccc(Cl)cc1)c1ccc(-n2ncc(=O)[nH]c2=O)cc1Cl (stereo unspecified) | 140 °C |
| CCOC(=NC(=O)OC)NC(=O)Nc1ccc(Cl)cc1Cl | 92 to 93 °C |
| COCC1COc2cc3ncnc(Nc4cc(C)cc(C)c4)c3cc2O1 (stereo unspecified) | 268 to 270 °C |
| CCn1cc(C2(c3cccc(-c4cccnc4F)c3)N=C(N)N3CCCN=C32)cn1 (stereo unspecified) | 91 to 115 °C |
| CCCNc1cccc(-c2ccc(C(=O)O)c(=O)[nH]2)c1 | 251 to 254 °C |
| COC(=O)[C@@H](N)CCc1nnnn1CC(=O)N[C@H](C)C(=O)OC | 87 to 89 °C |
| O=C(O)CNC(=O)COc1c(F)cc(CSCCNS(=O)(=O)c2ccc(Cl)cc2)cc1F | 140 °C |
| Cc1cc(OC(C)c2ccc(-c3ccccc3-c3nnn(C(c4ccccc4)(c4ccccc4)c4ccccc4)n3)cc2)c2ccccc2n1 (stereo unspecified) | 160 to 161 °C |
| CCOC(=O)C1=C(C)NC(CO)=C(C(=O)OCC)C1c1ccccc1/C=C/C(=O)OC(C)(C)C (stereo unspecified) | 163 to 164 °C |
| CC(=NO)C(C)(C)NCC(F)(F)CNC(C)(C)C(CCn1ccnc1[N+](=O)[O-])=NO | 90 to 92 °C |
| Cc1ccc(C(=O)O)c(F)c1C1=NC(C)(C(C)C)C(=O)N1 (stereo unspecified) | 164 to 170 °C |
| Cc1cc(NCCOC(=O)c2ccccc2)c2[nH]ncc2n1 | 136 to 138 °C |
| O=C(Nc1cccc(C(=O)Nc2ccccc2)c1)Nc1nnc(-c2cc(Cl)cc(Cl)c2O)s1 | 298 °C |
| CC(C)(Cc1c(Sc2ccccc2)c2cc(-c3ccccc3)ccc2n1Cc1ccc(Cl)cc1)C(=O)O | 182 to 183 °C |
| CCC(c1ccccc1)c1c(O)c2c(oc1=O)CCCCCC2 (stereo unspecified) | 201 to 202 °C |

| SMILES | melting point |
| --- | --- |
| CC(C)(C)CCNC(=O)c1ccc(CC(C)(C)C)cc1 | 124 to 126 °C |
| Cn1ccc(=S)c2ccccc21 | 208 to 210 °C |
| NCC1(C(=O)O)CC(c2ccccc2)Cc2c(O)cccc21 (stereo unspecified) | 110 to 112 °C |
| O=C(O)C#Cc1ccc(-c2ccccc2)cc1 | 170 °C |
| Cc1ccc(C(=O)c2ccc3[nH]cc(C4CCN(C)CC4)c3c2)cc1 | 92 °C |
| CCCCn1nc(C(OC)OC)nc1Cc1ccc(-c2ccccc2-c2nnn[nH]2)nc1 | 113 to 115 °C |
| CC1(C)SC2C(NC(=O)C(NC(=O)CBr)c3ccccc3)C(=O)N2C1c1nnn[nH]1 (stereo unspecified) | 128 to 135 °C |
| CC(O)C(=O)Nc1ccc(C2=NNC(=O)NC2C)cc1 (stereo unspecified) | 217 to 225 °C |
| CS(=O)(=O)c1ccc(C(=O)c2cc(-c3ccncc3)c(N3CCOCC3)s2)cc1 | 128 °C |
| O=C(Nc1cn2cc(Cl)ccc2n1)c1ccc(-n2cccn2)cc1 | 287 to 289 °C |
| CCC(C)(N=NC(C)(CC)NC(=O)NNC(C)(C)C)NC(=O)NNC(C)(C)C (stereo unspecified) | 155 to 160 °C |
| CC1(C)c2ccccc2N2Cc3cc(N=Nc4ccc([N+](=O)[O-])cc4)ccc3OC21c1ccccc1 (stereo unspecified) | 200 °C |
| CC(C)c1nnnn1-c1cc(C(=O)O)cc(-c2ccc(Cl)cn2)c1 | 180 to 181 °C |
| Nc1ncccc1-c1nc2ccc(-c3cccnc3)nc2n1-c1ccc(NC(=O)c2ccccc2)cc1 | 222 to 224 °C |
| O=C(NCCCCN1CCC(c2ccc3c(c2OCCO)CCCC3)CC1)c1sc(-c2ccc(C(F)(F)F)cc2)nc1CO | 157 to 159 °C |
| CC(CC(=O)c1ccccc1)C(=O)N1CCC[C@H]1C(=O)O (stereo partly specified) | 218 to 220 °C |
| CCOC(=O)C(C)(C)Oc1ccc(-c2ccc(CC(=O)Nc3cc(Cl)ccc3OC)cc2)cc1 | < 20 °C |
| O=C1c2cccc([N+](=O)[O-])c2C(=O)N1CC(=O)N1c2ccccc2N(Cc2ccccc2)C(=O)[C@H]2CCC[C@H]21 (relative stereo) | 238 to 240 °C |
| CCOC(=O)c1cn(C)c2cnc3cc(N4CCN(c5ccc(F)cc5)CC4)c(F)cc3c2c1=O | 300 °C |
| CCCn1nc(-c2ccc(F)cc2)c(-c2ccc(S(C)(=O)=O)cc2)cc1=O | 155 to 157 °C |
| O=C(c1ccc(-c2cccc(C(F)(F)F)c2)o1)N1Cc2c([nH]c3ccccc3c2=O)C1c1ccc2c(c1)OCO2 (stereo unspecified) | 219 to 221 °C |
| CC(=O)NCCOc1ccc(N)cc1O | 134 °C |
| COc1c(OCc2ccccc2)ccc(C(=O)O)c1N | 167 to 168 °C |
| O=C(O)CNS(=O)(=O)c1ccc(N2CCC(c3ccccc3)CC2)cc1 | 154 to 156 °C |
